We go through one compound from publication PMC9837035 (Nature Communications, 2023).

This test concerns H3K9me2 on the β-globin locus. Briefly: ChIP-seq for H3K9me2 in HUDEP-2 cells. In kind it is cell-based, human. To be noted: HUDEP-2, 1 μM, 4 days. The protocol:
A total of 0.5–1 × 10^6 cells were cross-linked with 1% formaldehyde for 10 min at room temperature and the reaction was quenched with 250 mM glycine. Cross-linked cells were then lysed with buffer 1 (15 mM Tris-HCl (pH 7.5), 60 mM KCl, 15 mM NaCl, 5 mM MgCl2, 0.1 mM EGTA, 300 mM sucrose, […], 1 mM phenylmethanesulfonyl fluoride (PMSF), 0.5% NP40) and incubated on ice for 10 min. After centrifugation, the pellet was re-suspended in buffer 2 (15 mM Tris-HCl (pH 7.5), 60 mM KCl, 15 mM NaCl, 5 mM MgCl2, 0.1 mM EGTA, 1.2 M sucrose, […], 1 mM PMSF). After centrifugation, the pellet was then re-suspended in MNase buffer (50 mM Tris-HCl (pH 7.5), 1 mM CaCl2, 4 mM MgCl2, 320 mM sucrose, 1 mM PMSF) and digested with 100 U of micrococcal nuclease (Takara) at 37 °C for 15 min. […] The samples were analyzed by qPCR. […] ChIP-seq analysis were analyzed Cutadapt (V1.9.1) for QC, FastQC (V0.10.1) for QC assessment, Bowtie (V2.1.0) for mapping, strand cross-correlation (SCC) for ChIP quality assessment, MACS2 for peak calling, and R package ChIPpeakAnno for Peak annotated.

With `Cc1c(C(=O)NC(CCC2CC2)C(=O)Nc2ccc(C#N)cc2)[nH]c2c1C(=O)CC(C)(C)C2` (stereo not shown) [RK-701], the “occupancies of H3K9me2 throughout the β-globin gene locus” value is given as “reduced”.
